According to patent publication US20240317721A1, “PYRAZOLYL DERIVATIVES AS INHIBITORS OF THE KRAS MUTANT PROTEIN” (NOVARTIS AG, priority 2021, published 2024):

Target: KRasG12C (M1-K169, biotinylated on the N-terminus) (Homo sapiens (Human), UniProt P01116, G12C)
Test: Covalent competition assay: scintillation proximity assay (SPA) quantifying covalent modification of KRASG12C
Format: binding
Details: competition with radiolabeled covalent probe (Compound B/Compound A), 2 hours incubation, 10 nM KRasG12C
Outline: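 Test compounds compete with a radiolabeled covalent probe for modification of N-terminally biotinylated KRasG12C(M1-K169):GDP, final 10 nM protein, 25 nM radio-ligand, 475 nM unlabelled ligand, 2 h with agitation in 20 mM Tris-HCl pH 7.5, 150 mM NaCl, 0.1 mM MgCl2, 0.01% Tween-20.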

Compound	IC50
C=CC(=O)N1CC2(CC(n3nc(N4CCC(CN5CC6COCC6C5)CC4(C)C)c(-c4c(Cl)c(Cl)cc5[nH]ncc45)c3C)C2)C1 (single isomer, unassigned) [Example 226b, 1-(6-(4-(5,6-dichloro-1H-indazol-4-yl)-3-(2,2-dimethyl-4-((tetrahydro-1H-furo[3,4-c]pyrrol-5(3H)-yl)methyl)piperidin-1-yl)-5-methyl-1H-pyrazol-1-yl)-2-azaspiro[3.3]heptan-2-yl)prop-2-en-1-one]	1100 nM
C=CC(=O)N1CC2(CC(n3nc(N4CCN(C5CCOCC5)C[C@]4(C)CCOC)c(-c4c(Cl)c(C)cc5[nH]ncc45)c3C)C2)C1 (single isomer, unassigned) [Example 87b]	1500 nM
C=CC(=O)N1CC2(CC(n3nc(N4CC[C@@H](CN5CCOC[C@@H](O)C5)CC4(C)C)c(-c4c(Cl)c(Cl)cc5[nH]ncc45)c3C)C2)C1 (single isomer, unassigned) [Example 292b]	27 nM
C=CC(=O)N1CC2(CC(n3nc(N4CC[C@@H](CN(C)S(=O)(=O)N5CCN(C)CC5)CC4(C)C)c(-c4c(Cl)c(Cl)cc5[nH]ncc45)c3C)C2)C1 (single isomer, unassigned) [Example 304b]	10 nM
C=CC(=O)N1CC2(CC(n3nc(N4CC[C@@H](CN5CC6C5CCN6C5COC5)CC4(C)C)c(-c4c(Cl)c(Cl)cc5[nH]ncc45)c3C)C2)C1 (single isomer, unassigned) [Example 277b, 1-(6-(4-(5,6-dichloro-1H-indazol-4-yl)-3-((R)-2,2-dimethyl-4-(((1S*,5S*)-2-(oxetan-3-yl)-2,6-diazabicyclo[3.2.0]heptan-6-yl)methyl)piperidin-1-yl)-5-methyl-1H-pyrazol-1-yl)-2-azaspiro[3.3]heptan-2-yl)prop-2-en-1-one]	< 5 nM
C=CC(=O)N1CC2(CC(n3nc(N4CC[C@@H](CN5CCOC6(C5)CN(C(C)=O)C6)CC4(C)C)c(-c4c(Cl)c(Cl)cc5[nH]ncc45)c3C)C2)C1 (single isomer, unassigned) [Example 311a]	1300 nM
C=CC(=O)N1CC2(CC(n3nc(N4CCn5nccc5C4C)c(-c4c(Cl)c(C)cc5[nH]ncc45)c3C)C2)C1 (single isomer, unassigned) [Example 41b, 1-(6-(4-(5-chloro-6-methyl-1H-indazol-4-yl)-5-methyl-3-(4-methyl-6,7-dihydropyrazolo[1,5-a]pyrazin-5(4H)-yl)-1H-pyrazol-1-yl)-2-azaspiro[3.3]heptan-2-yl)prop-2-en-1-one]	149 nM
C=CC(=O)N1CC2(CC(n3nc(N4CC[C@@H](CN5CCN(C6COC6)CC5)CC4(C)C)c(-c4c(Cl)c(C)cc5[nH]ncc45)c3C)C2)C1 (single isomer, unassigned) [Example 246a]	> 5000 nM
C=CC(=O)N1CC2(CC(n3nc(N4CCC(CN5CC6COCC6C5)CC4(C)C)c(-c4c(Cl)c(Cl)cc5[nH]ncc45)c3C)C2)C1 (single isomer, unassigned) [Example 227a, 1-(6-(4-(5,6-dichloro-1H-indazol-4-yl)-3-(2,2-dimethyl-4-((tetrahydro-1H-furo[3,4-c]pyrrol-5(3H)-yl)methyl)piperidin-1-yl)-5-methyl-1H-pyrazol-1-yl)-2-azaspiro[3.3]heptan-2-yl)prop-2-en-1-one]	4900 nM
C=CC(=O)N1CC2(CC(n3nc(N4CC[C@@H](CN5CCOCC5)CC4(C)C)c(-c4c(Cl)c(Cl)cc5[nH]ncc45)c3C)C2)C1 (single isomer, unassigned) [Example 213b]	12 nM
C=CC(=O)N1CC2(CC(n3nc(N4C5CCC4COC5)c(-c4c(Cl)c(C)cc5[nH]ncc45)c3C)C2)C1 (single isomer, unassigned) [Example 112b]	171 nM
C=CC(=O)N1CC2(CC(n3nc(N4CC[C@@H](CN5CCN(CCO)C(=O)C5)CC4(C)C)c(-c4c(Cl)c(Cl)cc5[nH]ncc45)c3C)C2)C1 (single isomer, unassigned) [Example 251a]	> 5000 nM
C=CC(=O)N1CC2(CC(n3nc(N4CC[C@@H](CN5CCO[C@@H](C(N)=O)C5)CC4(C)C)c(-c4c(Cl)c(Cl)cc5[nH]ncc45)c3C)C2)C1 (single isomer, unassigned) [Example 271a]	> 5000 nM
C=CC(=O)N1CC2(CC(n3nc(N4CCN(C[C@@H]5COCCO5)C[C@]4(C)CC)c(-c4c(Cl)c(C)cc5[nH]ncc45)c3C#N)C2)C1 [Example 176, 3-((S)-4-(((R)-1,4-dioxan-2-yl)methyl)-2-ethyl-2-methylpiperazin-1-yl)-1-(2-acryloyl-2-azaspiro[3.3]heptan-6-yl)-4-(5-chloro-6-methyl-1H-indazol-4-yl)-1H-pyrazole-5-carbonitrile]	< 5 nM
C=CC(=O)N1CC2(CC(n3nc(N4CC[C@@H](CN5CC6CC6(O)C5)CC4(C)C)c(-c4c(Cl)c(Cl)cc5[nH]ncc45)c3C)C2)C1 (single isomer, unassigned) [Example 258b]	22 nM
C=CC(=O)N1CC2(CC(n3nc(N4CCN(c5ccnnc5)C[C@]4(C)CC)c(-c4c(Cl)c(C)cc5[nH]ncc45)c3C)C2)C1 (single isomer, unassigned) [Example 192b]	8 nM

Other lines, results leading:

IC50	Compound
20 nM	C=CC(=O)N1CC2(CC(n3nc(N4CCC(n5ccnc5)CC4(C)C)c(-c4c(Cl)c(C)cc5[nH]ncc45)c3C)C2)C1 (single isomer, unassigned) [Example 44b, 1-(6-(3-(4-(1H-imidazol-1-yl)-2,2-dimethylpiperidin-1-yl)-4-(5-chloro-6-methyl-1H-indazol-4-yl)-5-methyl-1H-pyrazol-1-yl)-2-azaspiro[3.3]heptan-2-yl)prop-2-en-1-one]
> 5000 nM	C=CC(=O)N1CC2(CC(n3nc(N4CCN(C(=O)COC)CC45CCC5)c(-c4c(Cl)c(C)cc5[nH]ncc45)c3C)C2)C1 (single isomer, unassigned) [Example 123a, 1-(6-(4-(5-chloro-6-methyl-1H-indazol-4-yl)-3-(8-(2-methoxyacetyl)-5,8-diazaspiro[3.5]nonan-5-yl)-5-methyl-1H-pyrazol-1-yl)-2-azaspiro[3.3]heptan-2-yl)prop-2-en-1-one]
10 nM	C=CC(=O)N1CC2(CC(n3nc(N4CCC(N(C)C5COC5)CC45CCC5)c(-c4c(Cl)c(C)cc5[nH]ncc45)c3C)C2)C1 (single isomer, unassigned) [Example 51a, 1-(6-(4-(5-chloro-6-methyl-1H-indazol-4-yl)-5-methyl-3-(8-(methyl(oxetan-3-yl)amino)-5-azaspiro[3.5]nonan-5-yl)-1H-pyrazol-1-yl)-2-azaspiro[3.3]heptan-2-yl)prop-2-en-1-one]
35 nM	C=CC(=O)N1CC2(CC(n3nc(N4CCN(C(=O)OC)CC4(C)C)c(-c4c(Cl)c(C)cc5[nH]ncc45)c3C)C2)C1 (single isomer, unassigned) [Example 125b, methyl 4-(1-(2-acryloyl-2-azaspiro[3.3]heptan-6-yl)-4-(5-chloro-6-methyl-1H-indazol-4-yl)-5-methyl-1H-pyrazol-3-yl)-3,3-dimethylpiperazine-1-carboxylate]
> 5000 nM	C=CC(=O)N1CC2(CC(n3nc(N4CCN(CCOC(F)F)CC45CCC5)c(-c4c(Cl)c(C)cc5[nH]ncc45)c3C)C2)C1 (single isomer, unassigned) [Example 183a, 1-(6-(4-(5-chloro-6-methyl-1H-indazol-4-yl)-3-(8-(2-(difluoromethoxy)ethyl)-5,8-diazaspiro[3.5]nonan-5-yl)-5-methyl-1H-pyrazol-1-yl)-2-azaspiro[3.3]heptan-2-yl)prop-2-en-1-one]
13 nM	C=CC(=O)N1CC2(CC(n3nc(N4CCC5(CN(C6COC6)C5)CC4(C)C)c(-c4c(Cl)c(C)cc5[nH]ncc45)c3C)C2)C1 (single isomer, unassigned) [Example 91b, 1-(6-(4-(5-chloro-6-methyl-1H-indazol-4-yl)-3-(6,6-dimethyl-2-(oxetan-3-yl)-2,7-diazaspiro[3.5]nonan-7-yl)-5-methyl-1H-pyrazol-1-yl)-2-azaspiro[3.3]heptan-2-yl)prop-2-en-1-one]
51 nM	C=CC(=O)N1CC2(CC(n3nc(N4CCN(CC(C)(C)O)C[C@@]4(C)C(F)F)c(-c4c(Cl)c(C)cc5[nH]ncc45)c3C)C2)C1 (single isomer, unassigned) [Example 166b]
> 5000 nM	C=CC(=O)N1CC2(CC(n3nc(N4CCN(CCOC)C[C@@]4(C)C(F)F)c(-c4c(Cl)c(C)cc5[nH]ncc45)c3C)C2)C1 (single isomer, unassigned) [Example 179a]
138 nM	C=CC(=O)N1CC2(CC(n3nc(N4CCC(=O)CC45CCC5)c(-c4c(Cl)c(C)cc5[nH]ncc45)c3C)C2)C1 [Example 46, 5-(1-(2-acryloyl-2-azaspiro[3.3]heptan-6-yl)-4-(5-chloro-6-methyl-1H-indazol-4-yl)-5-methyl-1H-pyrazol-3-yl)-5-azaspiro[3.5]nonan-8-one]
11500 nM	C=CC(=O)N1CC2(CC(n3nc(N4CCC5(CC4)CN(C(C)=O)CCO5)c(-c4c(Cl)c(C)cc5[nH]ncc45)c3C)C2)C1 (single isomer, unassigned) [Example 26a, 1-(6-(3-(4-acetyl-1-oxa-4,9-diazaspiro [5.5]undecan-9-yl)-4-(5-chloro-6-methyl-1H-indazol-4-yl)-5-methyl-1H-pyrazol-1-yl)-2-azaspiro[3.3]heptan-2-yl)prop-2-en-1-one]
> 50000 nM	C=CC(=O)N1CC2(CC(n3nc(N4[C@H](C)CN(C(C)=O)C[C@@H]4C)c(-c4c(Cl)c(C)cc5[nH]ncc45)c3C)C2)C1 (single isomer, unassigned) [Example 13a]
> 5000 nM	C=CC(=O)N1CC2(CC(n3nc(N4CCN(C5COC5)C[C@@]4(C)COC)c(-c4c(Cl)c(C)cc5[nH]ncc45)c3C)C2)C1 (single isomer, unassigned) [Example 148a]
